The target of experiment [1] is PKCθ (Homo sapiens, UniProt Q04759). Briefly: Ki Pan Vera (PV) PKCθ. The experiment is classed as biochemical. The protocol:
(§1) For Ki Pan Vera (PV) of PKCθ, entries identified with “A” had values below 100 nM; entries identified with “B” had values below 1 μM.

Experiment [2] has as its target PKC delta (Homo sapiens, UniProt Q05655). The experiment can be described thus: Ki Pan Vera (PV) PKC delta. The experiment is classed as biochemical.
Experiment [3] has as its target PKC alpha (Homo sapiens, UniProt P17252). The experiment can be described thus: Ki Pan Vera (PV) PKC alpha. The experiment is classed as biochemical. The protocol:
[Worded in the source for another target; this target is reported under the same test.] as §1

Experiment [4] deals with anti-CD3 induced interleukin-2 (IL-2) production. The experiment can be described thus: anti-CD3 induced IL-2 production in mice. Type of experiment: in vivo. Here is the method: The compounds of the invention were also tested in vivo.
Experiment [5] has as its target T1, SGK1 (Homo sapiens, UniProt O00141).
T1 sequence (O00141 1-431): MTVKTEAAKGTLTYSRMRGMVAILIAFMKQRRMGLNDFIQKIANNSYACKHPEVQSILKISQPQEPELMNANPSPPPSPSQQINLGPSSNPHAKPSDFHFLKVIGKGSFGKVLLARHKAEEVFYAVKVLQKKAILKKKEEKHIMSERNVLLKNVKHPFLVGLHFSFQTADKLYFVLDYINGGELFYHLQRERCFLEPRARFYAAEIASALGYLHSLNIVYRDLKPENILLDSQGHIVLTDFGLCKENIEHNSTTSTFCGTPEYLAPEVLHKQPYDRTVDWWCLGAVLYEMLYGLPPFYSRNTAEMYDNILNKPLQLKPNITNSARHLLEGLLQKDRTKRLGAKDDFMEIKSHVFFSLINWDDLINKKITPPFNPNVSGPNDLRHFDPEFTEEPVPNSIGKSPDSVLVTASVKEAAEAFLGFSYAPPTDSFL
The experiment can be described thus: IC50 for kinase SGK (selectivity). The experiment is classed as biochemical. The protocol:
Entries identified with “1” had values above 15 nM; entries identified with “2” had values above 100 nM; entries identified with “3” had values above 1 μM; entries identified with “4” had values above 10 μM. In Table 2, “nd” stands for “not determined.”

Sequence of PKC delta (Q05655 whole entry): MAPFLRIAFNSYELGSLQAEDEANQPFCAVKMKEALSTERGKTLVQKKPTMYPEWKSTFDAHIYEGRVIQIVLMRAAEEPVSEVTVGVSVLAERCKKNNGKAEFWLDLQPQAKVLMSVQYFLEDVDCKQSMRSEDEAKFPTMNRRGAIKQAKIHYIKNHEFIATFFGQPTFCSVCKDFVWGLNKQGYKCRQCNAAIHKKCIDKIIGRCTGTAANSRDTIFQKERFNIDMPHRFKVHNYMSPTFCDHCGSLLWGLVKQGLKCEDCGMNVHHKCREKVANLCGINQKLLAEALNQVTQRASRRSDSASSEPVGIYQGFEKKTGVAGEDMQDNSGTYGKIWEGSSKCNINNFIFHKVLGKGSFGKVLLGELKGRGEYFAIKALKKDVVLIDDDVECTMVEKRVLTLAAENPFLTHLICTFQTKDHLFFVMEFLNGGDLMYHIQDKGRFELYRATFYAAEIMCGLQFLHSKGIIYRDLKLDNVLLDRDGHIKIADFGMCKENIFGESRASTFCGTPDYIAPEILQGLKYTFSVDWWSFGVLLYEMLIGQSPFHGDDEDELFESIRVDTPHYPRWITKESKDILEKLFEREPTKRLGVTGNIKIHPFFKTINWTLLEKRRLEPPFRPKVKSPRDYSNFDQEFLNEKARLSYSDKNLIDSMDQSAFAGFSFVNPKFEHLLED
Sequence of PKCθ (Q04759 whole entry): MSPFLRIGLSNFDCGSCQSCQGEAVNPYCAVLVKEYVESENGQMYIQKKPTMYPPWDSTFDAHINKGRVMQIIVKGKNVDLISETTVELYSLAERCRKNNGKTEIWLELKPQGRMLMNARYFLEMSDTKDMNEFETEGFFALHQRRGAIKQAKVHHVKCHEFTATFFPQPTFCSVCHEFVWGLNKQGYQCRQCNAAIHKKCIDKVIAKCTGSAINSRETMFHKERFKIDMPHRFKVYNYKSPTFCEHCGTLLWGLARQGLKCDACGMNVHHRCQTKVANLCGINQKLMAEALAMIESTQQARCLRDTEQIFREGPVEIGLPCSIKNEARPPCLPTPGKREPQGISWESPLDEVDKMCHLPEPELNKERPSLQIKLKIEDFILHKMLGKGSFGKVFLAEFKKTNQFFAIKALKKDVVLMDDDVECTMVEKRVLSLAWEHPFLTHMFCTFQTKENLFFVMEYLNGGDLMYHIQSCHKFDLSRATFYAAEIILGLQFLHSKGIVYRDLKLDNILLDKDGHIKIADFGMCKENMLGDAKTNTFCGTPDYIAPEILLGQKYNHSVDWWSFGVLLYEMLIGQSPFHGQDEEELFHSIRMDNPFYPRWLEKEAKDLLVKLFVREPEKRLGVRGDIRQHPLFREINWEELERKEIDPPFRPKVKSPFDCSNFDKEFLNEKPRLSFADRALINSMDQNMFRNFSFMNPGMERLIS

Consider `O=c1[nH]c2cnc(NC[C@@H]3CCNC3)nc2n1Cc1c(Cl)cccc1Cl` [Compound 101], for which the inhibition constant (Ki) in experiment [1] was less than 0.1 µM; in experiment [2] it was greater than 0.015 µM; in experiment [3] it was greater than 1 µM. In experiment [4] (subcutaneous dose 30 mg/kg), the “% inhibition of IL-2 production” value came to 39%.
The matching figures for `O=c1[nH]c2cnc(NC[C@@H]3CCNC3)nc2n1Cc1cccc(Cl)c1Cl` [Compound 107]: less than 0.1 µM, greater than 0.015 µM, greater than 1 µM and 45%.
The like results for `NCCCNc1ncc2[nH]c(=O)n(Cc3cc(Cl)ccc3Cl)c2n1` [Compound 115] were, in that order, less than 0.1 µM, greater than 0.1 µM, greater than 1 µM and 40%.
As to `NCCCNc1ncc2[nH]c(=O)n(Cc3c(Cl)cccc3Cl)c2n1` [Compound 120, 9-(2,6-dichlorobenzyl)-2-(3-aminopropylamino)-7H-purin-8(9H)-one], the figures for the Ki in experiment [1], in experiment [2] and in experiment [3] were less than 0.1 µM, greater than 0.1 µM and greater than 10 µM, respectively. Also, in experiment [5], the “IC50-SGK1 (nM)” value is “Inactive”. Moreover, the “% inhibition of IL-2 production” value in experiment [4] (subcutaneous dose 30 mg/kg) was 40%.
With `C=CC[C@@H]1/C=C(\C)C[C@H](C)C[C@H](OC)[C@H]2O[C@@](O)(C(=O)C(=O)N3CCCC[C@H]3C(=O)O[C@H](/C(C)=C/[C@@H]3CC[C@@H](O)[C@H](OC)C3)[C@H](C)[C@@H](O)CC1=O)[C@H](C)C[C@@H]2OC` [FK506, reference compound], in experiment [4] (subcutaneous dose 1 mg/kg), the “% inhibition of IL-2 production” value is 87%.
`O=c1[nH]c2ccc(NC[C@@H]3CCNC3)nc2n1Cc1c(Cl)cccc1Cl` [Compound 147, (R)-3-(2,6-Dichlorobenzyl)-5-(pyrrolidin-3-ylmethylamino)-1H-imidazo[4,5-b]pyridin-2(3H)-one]: the Ki was less than 0.1 µM in experiment [1], greater than 0.015 µM in experiment [2] and greater than 1 µM in experiment [3]. Also, the IC50 in experiment [5] is greater than 10 µM.
For the compound `O=c1[nH]c2cnc(NCC3CCNCC3)nc2n1Cc1ccccc1C(F)(F)F` [Compound 145], the Ki in experiment [1] is less than 1 µM; in experiment [2], greater than 1 µM; in experiment [3], greater than 10 µM. Also, the “IC50-SGK1 (nM)” value in experiment [5] is on record as “Inactive”.
The matching figures for `NCCCNc1ncc2[nH]c(=O)n(Cc3c(F)cccc3F)c2n1` [Compound 129]: less than 0.1 µM, greater than 0.1 µM, greater than 10 µM and “Inactive”.
For `NCCCNc1ncc2[nH]c(=O)n(Cc3ccccc3Cl)c2n1` [Compound 124], the Ki is less than 0.1 µM in experiment [1], greater than 0.1 µM in experiment [2] and greater than 10 µM in experiment [3]. This compound gave an IC50 in experiment [5] greater than 10 µM.
For `O=c1[nH]c2cnc(NCC3CCCNC3)nc2n1Cc1ccccc1Cl` (centres unmarked) [Compound 203], the Ki was less than 1 µM in experiment [1], greater than 0.1 µM in experiment [2] and greater than 10 µM in experiment [3]. The “IC50-SGK1 (nM)” value in experiment [5] is reported as “Inactive”.

What is called Ki is a measure of affinity in units of concentration, obtained from inhibition or displacement. A lower Ki goes with a stronger hold on the target. For orientation: IC50 means the concentration at which inhibition is half-maximal.

(Values after patent US7989459B2, “Purinones and 1H-imidazopyridinones as PKC-theta inhibitors” (Pharmacopeia, LLC, priority 2006, dated 2011).)
